pIC50: −log10 of the molar value. Where two headings read alike, the source gives them in different places.
Tests used:
p53 and p21 = p53 and p21 protein levels in HCT116 cells; format: cell-based, human
Description: (§1) Inhibition of 60S ribosome biogenesis is known to induce the stability and upregulation of p53, which could serve as a potential pharmacodynamics marker for MM017 in HCT116 cells. […] We used PRISM (Broad Institute) to evaluate the selectivity of MM017 across 902 cancer cell lines and then correlated this selectivity to 1,215 clinical and pre-clinical compounds in the PRISM database. […] These observations indicate that oxaliplatin and carmofur, like MM017, target ribosome biogenesis.

NVL-AID = assay: Viability of NVL^AID/AID cells on auxin-induced NVL degradation; format: cell-based, human
Description: To study the effect of NVL depletion, we engineered a C-terminal FLAG-epitope auxin-inducible degron (AID) tag into NVL in cells that also express the plant E3 ligase TIR1.

HCT116 cells = assay: Cell viability assay (CellTiter-Glo, 72 hours) in HCT116 human colorectal cancer cells; format: cell-based; details: Homo sapiens, HCT-116
Method in brief: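 Ten-point IC50 came from an asymmetric five-parameter fit of luminescence corrected to vehicle wells. ATP content was measured by CellTiter-Glo 72 h after dosing at 37 °C. Cells were seeded at 2,000/well the day before, with 0.5% DMSO in all wells.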

HCT116 NVL^P307T cells = assay: Cell viability in compound-resistant HCT116 NVL^P307T cells; format: cell-based, human
Description: Assessing the ability of NVL2 inhibitors to selectively kill WT versus NVL2^mut HCT116, block ribosome biogenesis and induce p53. We evaluate analogs in the colorectal cancer cell line HCT116 and already available compound-resistant clones. One clone has a mutation in the compound binding site (NVL2^R403W) and another clone (NVL2^P307T) has a mutation distant from the binding site that confers resistance through an unknown effect. Based on our results, analogs that kill HCT116 cells via NVL2 inhibition (on-target) have reduced potency in compound-resistant HCT116 mutant clones. Our analogs have been counter-screened against the NVL2 compound-resistant mutant clones with fold resistance range between 10-100 fold (most analogs 20-50 fold). This counter screen provides a strategy for identifying off-target toxins.
From whole exome sequencing, we identified variants that were acquired during IAA-induced mutagenesis with the hypothesis that genes related to resistance will be mutated in multiple clones. Two genes contained acquired variants in at least 3 of the 15 selected clones: TERT, mutated in 3 of 15 clones, and NVL, mutated in all 15 clones. […] In sum, 57 out of 59 unique clones harbored NVL mutations. The majority of mutations clustered within the D1 AAA+ ATPase domain and frequently affecting the same codons. To test whether these mutations are sufficient for MM017 resistance, we used CRISPR-Cas9 to knock-in two of the most resistant mutations (NVL^P307T, NVL^R403W) and a mutation with intermediate resistance (NVL^H304R). Transfection of cells with sgRNAs targeting these NVL residues in addition to a mutation-encoding repair template yielded an increased rate of resistance when compared to mock treatments.
(§2) HCT116 cells were transfected with TransIT-LT (Mirus #MIR2304) according to manufacturer's protocol with a guide RNA (either mock or NVL targeting) in the px330 vector (Addgene, #42230), and 10 nM single stranded deoxyoligonucleotide encoding a specific NVL mutation (see below for specific sequences). 72 hours after transfection, cells were selected by MM017 treatment. The resulting cells were evaluated by cresyl violet staining or collected and the relevant NVL mutations were analyzed by either amplicon or sanger sequencing.
Cell viability assay: In 96-well assay plates (Corning #2903), 2,000 cells were plated per well in 100 μL of medium and allowed to adhere overnight. The next day, compounds suspended in DMSO were dispensed to the assayed wells using a D300e Digital Dispenser (Tecan). All wells were normalized to 0.5% DMSO. 72 hours after incubation at 37° C. in 5% CO2, cell viability was assayed using an ATP-based luminescent viability assay, CellTiter-Glo (Promega #G8462). Substrate was mixed 1:1 with phosphate-buffered saline (PBS) supplemented with 1% Triton X-100, and 40 μL of this mixture was added to the assay wells. Plates were shaken on a microplate shaker for 10 minutes at room temperature. Luminescence (CellTiter-Glo) was recorded using a Synergy 2 microplate reader (BioTek). In Prism 9 software (GraphPad), ten-point dose response curves were plotted with baseline-correction to the vehicle control well, and IC50 values were calculated by curve fitting using asymmetric (five parameter), least squares fit.

NVL = target: T1, NVL (Homo sapiens, UniProt O15381); assay: Photo-crosslinking, affinity purification and probe displacement of NVL in cells; format: binding; set-up: endogenous in cells
T1 sequence (O15381 1-856): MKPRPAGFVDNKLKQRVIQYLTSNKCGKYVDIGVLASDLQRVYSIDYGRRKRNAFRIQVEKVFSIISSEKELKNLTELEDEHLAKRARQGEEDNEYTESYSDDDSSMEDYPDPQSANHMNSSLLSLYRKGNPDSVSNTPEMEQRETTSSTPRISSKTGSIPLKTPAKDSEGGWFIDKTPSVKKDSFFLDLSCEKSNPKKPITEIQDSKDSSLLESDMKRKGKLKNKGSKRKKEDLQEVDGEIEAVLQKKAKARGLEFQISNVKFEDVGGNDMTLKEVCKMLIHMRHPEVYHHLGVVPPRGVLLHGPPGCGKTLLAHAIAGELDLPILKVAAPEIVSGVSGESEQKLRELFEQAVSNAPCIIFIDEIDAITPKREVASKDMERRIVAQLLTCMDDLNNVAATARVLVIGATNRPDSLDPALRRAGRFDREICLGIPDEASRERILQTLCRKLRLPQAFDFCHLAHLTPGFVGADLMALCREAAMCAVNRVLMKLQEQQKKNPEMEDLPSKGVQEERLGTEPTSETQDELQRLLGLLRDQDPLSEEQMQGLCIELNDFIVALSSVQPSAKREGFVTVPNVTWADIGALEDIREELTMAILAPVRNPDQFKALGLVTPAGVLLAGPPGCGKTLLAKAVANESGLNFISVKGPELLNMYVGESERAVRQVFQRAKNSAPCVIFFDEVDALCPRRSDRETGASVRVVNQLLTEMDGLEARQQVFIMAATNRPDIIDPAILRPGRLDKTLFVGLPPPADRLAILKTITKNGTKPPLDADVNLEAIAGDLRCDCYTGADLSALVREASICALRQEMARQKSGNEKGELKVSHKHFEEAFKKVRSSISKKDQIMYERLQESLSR
Description: To test whether NVL2 mutations prevent compound binding, we synthesized MM0514, a crosslinker derivative of MM017. MM0514 contains an aryl azide, and thus is capable of covalently modifying target proteins following exposure to UV light. MM0514 also contains an alkyne group providing a “handle” to purify bound proteins using click chemistry. Critically, MM0514 retains on-target activity to HCT116 cells since NVL2^R403W mutant cells are resistant. We crosslinked either parental or NVL2^R403W HCT116 cells to MM0514 and analyzed NVL2 binding. […] To characterize the binding site, we solved the cryo-EM structure of NVL2 with MM017. MM017 binds to a single site in the asymmetric hexamer near the D subunit. Consistent with our binding data, the mutations map near the binding site, including R403, which is mutated to tryptophan in a resistant clone and predicted to prevent binding of MM017 or related analogs. The cryo-EM structure of NVL2 with MM017 provides further evidence of target identification and also a tool for optimizing a bioavailable compound.
To assess whether MM017 binds directly to NVL in cells, we used a MM017 crosslinker (Probe compound (2), Table A) that is UV-activatable and contains an alkyne that can be coupled to biotin for affinity purification. […]

cleaved caspase-3 = assay: Cleaved caspase-3 (apoptosis), HCT116 control and p53 KO cells; format: cell-based, human
Description: The upregulation of p53 and its effector p21 can arrest cell growth or induce cell death through apoptosis. […] Next, we addressed whether cell death was mediated by an apoptotic pathway by assaying for cleaved caspase-3, a bona fide marker of apoptosis.

902 cancer cell lines = assay: PRISM screen across 902 cancer cell lines; format: cell-based; details: 902 cancer cell lines, 1,215 compounds
Description: as §1
To nominate genetic predictors of MM017 sensitivity across different cancer types, we performed a PRISM screen across 902 cancer cell lines with known genotypes (31). […] These findings are consistent with the isogenic CRISPR screen and indicate that p53 is a critical effector for MM017 in cancer cells from multiple lineages and with differing genotypes.

[1] = tested on: serine 15 phosphorylated p53; assay: p53 serine 15 phosphorylation (DNA damage response marker); details: MM017 up to 10 μM
Description: A biochemical marker for activation of the DNA damage response is phosphorylation of serine 15 of p53, which results in increased p53 protein (41). Thus, we compared the impact of MM017, oxaliplatin, and CX-5461 on both p53 upregulation and p53 serine 15 phosphorylation.

HCT116 NVL^R403W cells = assay: Cell viability counter-screen in compound-resistant HCT116 NVL^R403W cells; format: cell-based, human; details: NVL^P307T, NVL^R403W or NVL^H304R cells
Experimental: Design and synthesis of benzothiazepine-based NVL inhibitors. […] Analogs were evaluated against the colorectal cancer cell line HCT116, and counter-screened against a compound resistant NVL2^R403W clone. Cytotoxicity in wild-type HCT116 was determined. […] Initial SAR focused on exploring the replacement of the furan ring of initial dibenzothiazepinone hit MM017. We first explored a wide variety of mono- and di-substituted phenyl rings, including a broad spectrum of functionality (F, Cl, alkyl, alkoxy, fluoroalkoxy, CN, formamide, S(O) Me, carboxyl, . . . ). […]
as §2, with “72 hours after transfection, cells were selected by MM017 treatment.” left out
Cell viability assay: In 96-well assay plates (Corning #2903), 2,000 cells were plated per well in 100 μL of medium and allowed to adhere overnight. […] Luminescence (CellTiter-Glo) was recorded using a Synergy 2 microplate reader (BioTek). […]

[2] = tested on: p53 KO and p21 KO HCT116 cells; assay: Growth competition of p53 or p21 knockout versus control HCT116 cells; format: cell-based, human
Description: To better understand how inhibition of NVL by MM017 leads to cell death, we performed a genome wide pooled CRISPR/Cas9 knockout screen in HCT116 cells using a library of guide RNAs targeting 19,114 genes. Cells were pulsed intermittently with vehicle or MM017 over 21 days, at which point MM017 treated cells had undergone 9.79 fewer population doublings. Massively parallel sequencing of PCR products amplified from genomic DNA was used to determine relative levels of sgRNA sequences to infer the relative impact of each gene on compound sensitivity. […] To confirm whether p53 and p21 are required for the anti-proliferative activity of MM017, we performed a growth competition experiment between cells expressing ZsGreen with either p53 or p21 knockout (KO) and control cells expressing mCherry. Without treatment, the ratio between green and red cells was unchanged over time.

[3] = tested on: HCT116 control and p53 KO cells; assay: Cell death by loss in membrane permeability, HCT116 control and p53 KO cells; format: cell-based, human; details: five-day treatment

## Cc1cnc(CNC(=O)c2c(=O)c3ccc(N4CCCN(C)CC4)nc3n3c2sc2ccccc23)cn1 [CX-5461, reference compound]
p53 and p21
  p53 levels in parental HCT116 cells: dose-dependent increase in the levels of p53

## O=C(O)Cc1c[nH]c2ccc(-c3ccccc3)cc12 [Ph-IAA, 5-Phenyl-indole-3-acetic acid]
NVL-AID
  viability of NVL^AID/AID cells: reduced viability in a dose-dependent manner

## C#CCOCCN1C(=O)c2ccccc2Sc2cc(NC(=O)c3ccc(N=[N+]=[N-])cc3)ccc21 [Probe compound 2, 4-Azido-N-(11-oxo-10-(2-(prop-2-yn-1-yloxy)ethyl)-10, 11-dihydro-dibenzo[b,f][1,4]thiazepin-7-yl)benzamide]
HCT116 cells; read-out: IC50, proliferation of HCT116 cells
  pIC50: 6.33
HCT116 NVL^P307T cells
  resistance of NVL^P307T cells: comparatively resistant
NVL; UV light
  NVL crosslinked to / purified with probe: only detected in conditions that included both the MM017-probe and UV light

## CN[C@@H]1C[C@H]2O[C@@](C)([C@@H]1OC)n1c3ccccc3c3c4c(c5c6ccccc6n2c5c31)C(=O)NC4 [Staurosporine, reference compound]
Cleaved caspase-3
  cleaved caspase-3: robust caspase activation in both control and p53 KO cells

## CCCCCCNC(=O)n1cc(F)c(=O)[nH]c1=O [carmofur]
902 cancer cell lines
  correlation (r) of selectivity with MM017: 0.53

## COCCN1C(=O)c2ccccc2Sc2cc(NC(=O)c3ccc(OC)cc3)ccc21 [compound 3]
HCT116 cells; read-out: IC50s (cellular activity of MM017 derivatives)
  pIC50: 6.44
NVL; NVL-FLAG knock-in cell line, increasing doses
  displacement of MM017-probe from NVL: more effectively displaced MM017-probe

## O=C1[O][Pt]2([NH][C@@H]3CCCC[C@H]3[NH]2)[O]C1=O [oxaliplatin, reference compound]
p53 and p21
  p53 levels in parental HCT116 cells: dose-dependent increase in the levels of p53
[1]
  serine 15 phosphorylated p53: dose-dependent increase in phosphorylated p53

## CC(=O)O[C@H]1C(=O)[C@@]2(C)[C@H]([C@H](OC(=O)c3ccccc3)[C@]3(O)C[C@H](OC(=O)[C@H](O)[C@@H](NC(=O)c4ccccc4)c4ccccc4)C(C)=C1C3(C)C)[C@]1(OC(C)=O)CO[C@@H]1C[C@@H]2O [paclitaxel, reference compound]
HCT116 NVL^R403W cells
  sensitivity of NVL mutant cells compared to NVL^WT: equally sensitive
[2]
  enrichment of p53 or p21 KO cells in growth competition: no competitive advantage
[3]
  cell death in p53 KO versus control cells: cell death irrespective of p53

Reference: US20260097047A1, “Small molecule inhibitors of the ribosome biogenesis factor NVL2” (Board of Regents, The University of Texas System, priority 2023, published 2026)
